The values below are quoted from earlier work in PMC5849076 (Biochemistry, 2018).

In data set [1] the target is DaCld (Dechloromonas aromatica, UniProt Q47CX0).
Data set [2] deals with KpCld.

Sequence of DaCld (Q47CX0 35-282): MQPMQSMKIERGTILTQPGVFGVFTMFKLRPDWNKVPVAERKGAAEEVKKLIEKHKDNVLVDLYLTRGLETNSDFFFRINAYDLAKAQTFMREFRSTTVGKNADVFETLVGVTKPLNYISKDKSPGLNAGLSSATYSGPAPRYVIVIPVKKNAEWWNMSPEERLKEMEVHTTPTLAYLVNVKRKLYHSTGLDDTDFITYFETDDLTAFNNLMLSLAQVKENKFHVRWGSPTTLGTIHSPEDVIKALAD

Turning to chlorite [ClO2^−], the “turnovers prior to irreversible inactivation” value in data set [1] is > 20,000 equivalents of ClO2^− per heme. Also, the number of turnovers in data set [2] is 6700 ± 300 equivalents ClO2^−/heme.
